From ChEMBL document CHEMBL5512682, “Discovery of BMS-986308: A Renal Outer Medullary Potassium Channel Inhibitor for the Treatment of Heart Failure” (J Med Chem, 2024)
In brackets after ≈: the same amount, converted by molar mass. Values belong to the compound of their own block, whether it stands above or below them.

Tests used:
[1] = Metabolic stability in human liver microsomes assessed as parent compound remaining at 10 uM measured after 10 mins in presence of NADPH and GSH by UPLC-MS/MS analysis; format: ADME, Microsome; conditions: read-out: Stability
[2] = Metabolic stability in rat liver microsomes assessed as parent compound remaining at 10 uM measured after 10 mins in presence of NADPH and GSH by UPLC-MS/MS analysis; format: ADME, Microsome; conditions: read-out: Stability
[3] = molecular target: T1, hERG (KCNH2) (Homo sapiens, UniProt Q12809); assay: Inhibition of human ERG expressed in HEK293 cells at 3 uM incubated for 2 to 5 mins by Manual patch clamp assay relative to control; format: toxicity, cell-based; conditions: HEK293 cells expressing hERG, time 2-5 min
T1 sequence (Q12809 whole entry): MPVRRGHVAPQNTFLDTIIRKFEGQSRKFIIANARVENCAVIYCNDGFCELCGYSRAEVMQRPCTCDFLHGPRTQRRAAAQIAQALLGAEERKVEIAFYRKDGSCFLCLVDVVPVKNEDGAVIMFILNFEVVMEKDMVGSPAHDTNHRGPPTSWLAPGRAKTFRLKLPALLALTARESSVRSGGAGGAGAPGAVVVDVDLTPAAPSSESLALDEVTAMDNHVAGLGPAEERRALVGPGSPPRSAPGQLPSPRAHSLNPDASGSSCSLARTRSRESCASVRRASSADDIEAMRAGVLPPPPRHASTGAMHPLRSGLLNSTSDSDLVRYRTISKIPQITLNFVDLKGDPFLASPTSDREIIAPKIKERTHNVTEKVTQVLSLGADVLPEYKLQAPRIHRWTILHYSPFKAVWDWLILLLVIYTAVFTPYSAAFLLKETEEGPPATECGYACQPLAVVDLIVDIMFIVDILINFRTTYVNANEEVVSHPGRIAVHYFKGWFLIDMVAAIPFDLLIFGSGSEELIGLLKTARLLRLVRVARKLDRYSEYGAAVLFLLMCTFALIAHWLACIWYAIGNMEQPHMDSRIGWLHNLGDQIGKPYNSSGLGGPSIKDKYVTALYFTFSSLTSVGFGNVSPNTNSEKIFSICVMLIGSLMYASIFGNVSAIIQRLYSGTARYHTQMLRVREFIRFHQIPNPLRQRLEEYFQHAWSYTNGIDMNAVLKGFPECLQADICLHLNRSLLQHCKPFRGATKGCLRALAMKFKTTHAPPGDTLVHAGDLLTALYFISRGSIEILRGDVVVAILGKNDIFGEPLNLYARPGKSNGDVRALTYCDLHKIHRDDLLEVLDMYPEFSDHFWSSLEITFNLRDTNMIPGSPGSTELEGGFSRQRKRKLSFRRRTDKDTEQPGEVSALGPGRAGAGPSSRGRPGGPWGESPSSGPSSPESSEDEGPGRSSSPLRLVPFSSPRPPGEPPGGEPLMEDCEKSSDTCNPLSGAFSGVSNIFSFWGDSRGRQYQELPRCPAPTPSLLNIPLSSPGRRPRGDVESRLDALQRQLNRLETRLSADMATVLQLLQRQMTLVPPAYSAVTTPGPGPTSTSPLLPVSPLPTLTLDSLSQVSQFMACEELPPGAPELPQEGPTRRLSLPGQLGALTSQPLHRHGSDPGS

[4] = Glutathione reactivity in human liver microsomes assessed as GSH-adduct formation at 10 uM incubated for 60 mins in presence of NADPH and GSH by HPLC-MS analysis; format: ADME, Microsome; conditions: 1 h
[5] = molecular target: Inward rectifier potassium channel 2 (Homo sapiens, UniProt P63252); assay: Inhibition of Kir 2.1 (unknown origin)
Sequence of Inward rectifier potassium channel 2 (P63252 whole entry): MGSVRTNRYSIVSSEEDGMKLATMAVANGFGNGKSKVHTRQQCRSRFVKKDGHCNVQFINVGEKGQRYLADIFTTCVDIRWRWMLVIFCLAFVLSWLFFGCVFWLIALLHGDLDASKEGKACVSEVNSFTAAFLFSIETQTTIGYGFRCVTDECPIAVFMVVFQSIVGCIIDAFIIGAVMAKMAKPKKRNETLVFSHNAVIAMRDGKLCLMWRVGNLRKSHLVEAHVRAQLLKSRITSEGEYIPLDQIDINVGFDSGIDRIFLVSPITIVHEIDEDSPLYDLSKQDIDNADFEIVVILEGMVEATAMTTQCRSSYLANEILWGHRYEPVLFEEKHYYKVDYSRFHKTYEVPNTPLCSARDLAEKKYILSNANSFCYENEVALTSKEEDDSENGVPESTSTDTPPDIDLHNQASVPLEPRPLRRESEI

[6] = molecular target: Inward rectifier potassium channel 4 (Homo sapiens, UniProt P48050); assay: Inhibition of Kir 2.3 (unknown origin)
[7] = molecular target: ATP-sensitive inward rectifier potassium channel 10 (Homo sapiens, UniProt P78508); assay: Inhibition of Kir 4.1 (unknown origin)
[8] = molecular target: Inward rectifier potassium channel 13 (Homo sapiens, UniProt O60928); assay: Inhibition of Kir 7.1 (unknown origin)
[9] = Permeability of compound from apical to basolateral side in human Caco-2 cells; format: ADME, cell-based; conditions: read-out: permeability
[10] = Permeability of compound from basolateral to apical side in human Caco-2 cells; format: ADME, cell-based
[11] = molecular target: Cytochrome P450 1A2 (Homo sapiens, UniProt P05177); assay: Inhibition of CYP1A2 in human liver microsomes; format: ADME, Microsome
Sequence of Cytochrome P450 1A2 (P05177 whole entry): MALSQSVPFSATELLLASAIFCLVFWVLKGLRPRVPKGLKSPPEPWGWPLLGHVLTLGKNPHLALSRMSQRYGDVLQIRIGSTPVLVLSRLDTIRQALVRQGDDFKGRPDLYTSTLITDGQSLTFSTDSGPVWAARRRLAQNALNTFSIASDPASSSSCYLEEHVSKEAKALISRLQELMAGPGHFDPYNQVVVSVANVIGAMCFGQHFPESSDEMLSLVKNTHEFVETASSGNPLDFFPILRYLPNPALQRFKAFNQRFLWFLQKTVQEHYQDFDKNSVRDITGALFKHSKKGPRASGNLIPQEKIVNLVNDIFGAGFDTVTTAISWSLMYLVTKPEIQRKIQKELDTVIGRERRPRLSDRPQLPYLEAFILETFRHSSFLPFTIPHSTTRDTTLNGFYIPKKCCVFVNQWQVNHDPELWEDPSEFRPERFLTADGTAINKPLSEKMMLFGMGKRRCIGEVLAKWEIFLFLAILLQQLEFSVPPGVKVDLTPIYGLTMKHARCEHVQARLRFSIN

[12] = molecular target: Cytochrome P450 2B6 (Homo sapiens, UniProt P20813); assay: Inhibition of CYP2B6 in human liver microsomes; format: ADME, Microsome
[13] = molecular target: Cytochrome P450 2C8 (Homo sapiens, UniProt P10632); assay: Inhibition of CYP2C8 in human liver microsomes; format: ADME, Microsome
[14] = molecular target: Cytochrome P450 2C9 (Homo sapiens, UniProt P11712); assay: Inhibition of CYP2C9 in human liver microsomes; format: ADME, Microsome
[15] = molecular target: Cytochrome P450 2C19 (Homo sapiens, UniProt P33261); assay: Inhibition of CYP2C19 in human liver microsomes; format: ADME, Microsome
[16] = molecular target: Cytochrome P450 2D6 (Homo sapiens, UniProt P10635); assay: Inhibition of CYP2D6 in human liver microsomes; format: ADME, Microsome
Sequence of Cytochrome P450 2D6 (P10635 whole entry): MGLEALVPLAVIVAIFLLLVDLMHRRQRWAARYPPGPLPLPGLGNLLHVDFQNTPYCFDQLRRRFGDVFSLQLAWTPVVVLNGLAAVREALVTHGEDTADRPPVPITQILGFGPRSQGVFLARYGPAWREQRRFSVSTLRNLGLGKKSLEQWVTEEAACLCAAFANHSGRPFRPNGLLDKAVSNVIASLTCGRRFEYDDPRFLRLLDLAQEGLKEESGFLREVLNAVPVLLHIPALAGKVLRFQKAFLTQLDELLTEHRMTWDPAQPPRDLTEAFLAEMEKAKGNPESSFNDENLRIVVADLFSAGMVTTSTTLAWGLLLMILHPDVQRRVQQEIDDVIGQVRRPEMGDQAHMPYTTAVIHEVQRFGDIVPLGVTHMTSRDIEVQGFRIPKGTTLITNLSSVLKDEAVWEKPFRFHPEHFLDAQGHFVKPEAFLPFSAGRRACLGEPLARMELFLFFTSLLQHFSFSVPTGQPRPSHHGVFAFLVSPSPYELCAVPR

[17] = molecular target: T2, Cytochrome P450 3A4 (Homo sapiens, UniProt P08684); assay: Inhibition of CYP3A4 in human liver microsomes using midazolam as substrate; format: ADME, Microsome
T2 sequence (P08684 whole entry): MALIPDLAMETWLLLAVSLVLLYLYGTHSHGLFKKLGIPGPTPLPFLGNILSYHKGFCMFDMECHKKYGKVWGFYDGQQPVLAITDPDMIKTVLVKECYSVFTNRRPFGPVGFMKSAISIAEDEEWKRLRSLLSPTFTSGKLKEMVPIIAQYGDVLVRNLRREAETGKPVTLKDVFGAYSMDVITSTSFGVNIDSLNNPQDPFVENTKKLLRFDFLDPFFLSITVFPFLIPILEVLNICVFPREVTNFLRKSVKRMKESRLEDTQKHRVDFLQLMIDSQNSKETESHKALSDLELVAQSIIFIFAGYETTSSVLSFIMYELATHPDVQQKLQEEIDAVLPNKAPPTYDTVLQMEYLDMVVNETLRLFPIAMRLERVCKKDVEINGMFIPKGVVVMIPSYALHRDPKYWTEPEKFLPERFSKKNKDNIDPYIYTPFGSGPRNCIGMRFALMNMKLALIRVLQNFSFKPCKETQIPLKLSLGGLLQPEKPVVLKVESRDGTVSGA

[18] = molecular target: T2, Cytochrome P450 3A4; assay: Inhibition of CYP3A4 in human liver microsomes using testosterone as substrate; format: ADME, Microsome
[19] = molecular target: CYP1A2 (Homo sapiens, UniProt P05177); assay: Induction of CYP1A2 (unknown origin); format: ADME
Sequence of CYP1A2 (P05177 whole entry): as the sequence (P05177 whole entry) above

[20] = molecular target: CYP2B6 (Homo sapiens, UniProt P20813); assay: Induction of CYP2B6 (unknown origin); format: ADME
[21] = molecular target: CYP3A4 (Homo sapiens, UniProt P08684); assay: Induction of CYP3A4 (unknown origin); format: ADME
Sequence of CYP3A4 (P08684 whole entry): as the sequence (P08684 whole entry) above

[22] = Protein binding in human plasma assessed as unbound fraction; format: ADME, cell-free
[23] = Protein binding in rat plasma assessed as unbound fraction; format: ADME, cell-free
[24] = Protein binding in mouse plasma assessed as unbound fraction; format: ADME, cell-free
[25] = Protein binding in dog plasma assessed as unbound fraction; format: ADME, cell-free, Canis lupus familiaris
[26] = Protein binding in Cynomolgus monkey plasma assessed as unbound fraction; format: ADME, cell-free, Macaca fascicularis
[27] = molecular target: Nuclear receptor subfamily 1 group I member 2 (Homo sapiens, UniProt O75469); assay: Activation of PXR (unknown origin)
Sequence of Nuclear receptor subfamily 1 group I member 2 (O75469 whole entry): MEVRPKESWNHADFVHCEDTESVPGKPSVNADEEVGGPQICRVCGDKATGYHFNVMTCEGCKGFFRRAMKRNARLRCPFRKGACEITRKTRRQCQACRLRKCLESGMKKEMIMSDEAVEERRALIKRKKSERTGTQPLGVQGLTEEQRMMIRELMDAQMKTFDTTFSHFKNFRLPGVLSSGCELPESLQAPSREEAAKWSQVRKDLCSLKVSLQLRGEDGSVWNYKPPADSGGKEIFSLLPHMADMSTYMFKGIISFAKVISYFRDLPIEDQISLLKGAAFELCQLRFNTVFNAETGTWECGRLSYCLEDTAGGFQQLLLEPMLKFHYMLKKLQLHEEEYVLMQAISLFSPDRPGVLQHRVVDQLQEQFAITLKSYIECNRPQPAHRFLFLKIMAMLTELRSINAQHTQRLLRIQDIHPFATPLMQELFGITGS

[28] = Cytotoxicity against human HepG2 cells; format: toxicity, cell-based
[29] = molecular target: Multidrug and toxin extrusion protein 1 (Homo sapiens, UniProt Q96FL8); assay: Inhibition of MATE1 (unknown origin)
[30] = molecular target: Bile salt export pump (Homo sapiens, UniProt O95342); assay: Inhibition of BSEP (unknown origin)
Sequence of Bile salt export pump (O95342 whole entry): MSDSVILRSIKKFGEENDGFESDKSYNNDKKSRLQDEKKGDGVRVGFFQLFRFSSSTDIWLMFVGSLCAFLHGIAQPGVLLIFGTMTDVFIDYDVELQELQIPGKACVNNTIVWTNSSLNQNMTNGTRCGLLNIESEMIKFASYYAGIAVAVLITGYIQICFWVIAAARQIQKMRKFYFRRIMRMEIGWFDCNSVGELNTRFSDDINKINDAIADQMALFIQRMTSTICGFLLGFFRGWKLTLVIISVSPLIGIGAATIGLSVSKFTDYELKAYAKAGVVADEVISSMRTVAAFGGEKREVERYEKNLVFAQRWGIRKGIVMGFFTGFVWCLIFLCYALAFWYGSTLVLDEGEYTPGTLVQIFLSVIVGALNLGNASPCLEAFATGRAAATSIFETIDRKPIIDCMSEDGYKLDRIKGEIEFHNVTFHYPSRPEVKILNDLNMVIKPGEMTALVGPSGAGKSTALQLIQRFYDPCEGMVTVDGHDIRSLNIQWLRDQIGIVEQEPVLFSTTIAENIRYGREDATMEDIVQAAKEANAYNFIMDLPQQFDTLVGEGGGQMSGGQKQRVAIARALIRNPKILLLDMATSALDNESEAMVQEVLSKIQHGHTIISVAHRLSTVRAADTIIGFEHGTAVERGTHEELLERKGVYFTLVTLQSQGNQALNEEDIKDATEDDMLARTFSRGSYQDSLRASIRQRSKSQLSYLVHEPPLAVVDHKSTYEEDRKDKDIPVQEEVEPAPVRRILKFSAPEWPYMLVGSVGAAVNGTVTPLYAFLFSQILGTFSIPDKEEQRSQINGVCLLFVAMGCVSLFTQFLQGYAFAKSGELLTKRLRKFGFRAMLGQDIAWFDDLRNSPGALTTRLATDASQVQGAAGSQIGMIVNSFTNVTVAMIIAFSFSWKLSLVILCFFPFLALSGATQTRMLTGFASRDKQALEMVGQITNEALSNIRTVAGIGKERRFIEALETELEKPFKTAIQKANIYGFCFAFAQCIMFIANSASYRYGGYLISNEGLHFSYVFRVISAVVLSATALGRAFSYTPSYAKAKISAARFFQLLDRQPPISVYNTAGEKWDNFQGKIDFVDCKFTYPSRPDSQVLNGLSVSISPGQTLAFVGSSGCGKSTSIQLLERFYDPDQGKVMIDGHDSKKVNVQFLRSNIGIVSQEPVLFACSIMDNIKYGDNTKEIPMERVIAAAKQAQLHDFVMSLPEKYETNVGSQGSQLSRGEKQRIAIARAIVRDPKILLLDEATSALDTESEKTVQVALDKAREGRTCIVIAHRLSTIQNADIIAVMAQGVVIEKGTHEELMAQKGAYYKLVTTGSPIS

[31] = molecular target: Solute carrier organic anion transporter family member 1B1 (Homo sapiens, UniProt Q9Y6L6); assay: Inhibition of OATP1B1 (unknown origin)
[32] = molecular target: Solute carrier organic anion transporter family member 1B3 (Homo sapiens, UniProt Q9NPD5); assay: Inhibition of OATP1B3 (unknown origin)
[33] = molecular target: Hepatic sodium/bile acid cotransporter (Homo sapiens, UniProt Q14973); assay: Inhibition of NTCP (unknown origin)
[34] = molecular target: ATP-binding cassette sub-family C member 2 (Homo sapiens, UniProt Q92887); assay: Inhibition of MRP2 (unknown origin)
[35] = molecular target: Solute carrier family 22 member 6 (Homo sapiens, UniProt Q4U2R8); assay: Inhibition of OAT1 (unknown origin)
[36] = molecular target: Organic anion transporter 3 (Homo sapiens, UniProt Q8TCC7); assay: Inhibition of OAT3 (unknown origin)
[37] = molecular target: Broad substrate specificity ATP-binding cassette transporter ABCG2 (Homo sapiens, UniProt Q9UNQ0); assay: Inhibition of BCRP (unknown origin)
[38] = Solubility of compound at pH 1.1; format: physicochemical; conditions: buffer
[39] = Solubility of compound at pH 7.4; format: physicochemical; conditions: buffer
[40] = Volume of distribution at steady state in mouse at 2 mg/kg, iv; format: ADME, organism-based; conditions: in vivo, read-out: Vdss
[41] = Half-life in mouse at 2 mg/kg, iv; format: ADME, organism-based; conditions: in vivo
[42] = MRT in mouse at 2 mg/kg, iv; format: ADME, organism-based; conditions: in vivo
[43] = Cmax in mouse at 2 mg/kg, po; format: ADME, organism-based; conditions: in vivo
[44] = Tmax in mouse at 2 mg/kg, po; format: ADME, organism-based; conditions: in vivo
[45] = AUC (0 to t) in mouse at 2 mg/kg, po; format: ADME, organism-based; conditions: in vivo
[46] = Oral bioavailability in mouse at 5 mg/kg; format: ADME, organism-based; conditions: in vivo
[47] = Volume of distribution at steady state in male Sprague-Dawley rat at 2 mg/kg, iv measured after 24 hrs by LC-MS/MS analysis; format: ADME, organism-based; conditions: in vivo, read-out: Vdss
[48] = Half-life in male Sprague-Dawley rat at 2 mg/kg, iv measured after 24 hrs by LC-MS/MS analysis; format: ADME, organism-based; conditions: in vivo
[49] = MRT in male Sprague-Dawley rat at 2 mg/kg, iv measured after 24 hrs by LC-MS/MS analysis; format: ADME, organism-based; conditions: in vivo
[50] = Cmax in male Sprague-Dawley rat at 5 mg/kg, po measured after 24 hrs by LC-MS/MS analysis; format: ADME, organism-based; conditions: in vivo
[51] = Tmax in male Sprague-Dawley rat at 5 mg/kg, po measured after 24 hrs by LC-MS/MS analysis; format: ADME, organism-based; conditions: in vivo
[52] = AUC (0 to t) in male Sprague-Dawley rat at 5 mg/kg, po measured after 24 hrs by LC-MS/MS analysis; format: ADME, organism-based; conditions: in vivo
[53] = Oral bioavailability in male Sprague-Dawley rat at 5 mg/kg measured after 24 hrs by LC-MS/MS analysis; format: ADME, organism-based; conditions: in vivo
[54] = Volume of distribution at steady state in dog at 2 mg/kg, iv; format: ADME, organism-based, Canis lupus familiaris; conditions: in vivo, read-out: Vdss
[55] = Half-life in dog at 2 mg/kg, iv; format: ADME, organism-based, Canis lupus familiaris; conditions: in vivo
[56] = MRT in dog at 2 mg/kg, iv; format: ADME, organism-based, Canis lupus familiaris; conditions: in vivo
[57] = Cmax in dog at 5 mg/kg, po; format: ADME, organism-based, Canis lupus familiaris; conditions: in vivo
[58] = Tmax in dog at 5 mg/kg, po; format: ADME, organism-based, Canis lupus familiaris; conditions: in vivo
[59] = AUC (0 to t) in dog at 5 mg/kg, po; format: ADME, organism-based, Canis lupus familiaris; conditions: in vivo
[60] = Oral bioavailability in dog at 5 mg/kg; format: ADME, organism-based, Canis lupus familiaris; conditions: in vivo
[61] = Volume of distribution at steady state in Cynomolgus monkey at 2 mg/kg, iv; format: ADME, organism-based, Macaca fascicularis; conditions: in vivo, read-out: Vdss
[62] = Half-life in Cynomolgus monkey at 2 mg/kg, iv; format: ADME, organism-based, Macaca fascicularis; conditions: in vivo
[63] = MRT in Cynomolgus monkey at 2 mg/kg, iv; format: ADME, organism-based, Macaca fascicularis; conditions: in vivo
[64] = Cmax in Cynomolgus monkey at 5 mg/kg, po; format: ADME, organism-based, Macaca fascicularis; conditions: in vivo
[65] = Tmax in Cynomolgus monkey at 5 mg/kg, po; format: ADME, organism-based, Macaca fascicularis; conditions: in vivo
[66] = AUC (0 to t) in Cynomolgus monkey at 5 mg/kg, po; format: ADME, organism-based, Macaca fascicularis; conditions: in vivo
[67] = Oral bioavailability in Cynomolgus monkey at 5 mg/kg; format: ADME, organism-based, Macaca fascicularis; conditions: in vivo
[68] = molecular target: T1, hERG (KCNH2); assay: Inhibition of human ERG expressed in HEK293 cells at 10 uM incubated for 2 to 5 mins by Manual patch clamp assay relative to control; format: toxicity, cell-based; conditions: HEK293 cells expressing hERG, time 2-5 min
[69] = molecular target: T3, ATP-sensitive inward rectifier potassium channel 1 (Homo sapiens, UniProt P48048)
T3 sequence (P48048 whole entry): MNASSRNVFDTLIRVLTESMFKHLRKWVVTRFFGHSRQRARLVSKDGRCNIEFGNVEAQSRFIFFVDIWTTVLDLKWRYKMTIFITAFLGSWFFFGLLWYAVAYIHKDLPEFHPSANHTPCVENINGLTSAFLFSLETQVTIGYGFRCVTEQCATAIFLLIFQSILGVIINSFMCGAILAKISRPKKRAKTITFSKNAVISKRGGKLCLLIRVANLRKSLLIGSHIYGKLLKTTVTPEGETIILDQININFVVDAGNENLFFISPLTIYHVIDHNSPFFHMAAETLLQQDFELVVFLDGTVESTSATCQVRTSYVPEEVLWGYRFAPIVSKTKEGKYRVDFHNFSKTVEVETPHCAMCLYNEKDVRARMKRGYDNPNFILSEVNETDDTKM
Description: Inhibition of human ROMK expressed in T-REX-CHO cells incubated for 30 mins by thallium flux assay

[70] = molecular target: T3, ATP-sensitive inward rectifier potassium channel 1; remark: listed apart in the source
Description: Inhibition of human ROMK expressed in T-REX-CHO cells incubated for 3 to 8 mins by whole cell manual patch clamp assay

remaining at 10 min, 10 µM [1]: 54%
remaining at 10 min, 10 µM [2]: 50%
Activity [4]: Active
Compound: Cc1cc(-n2cc(CN3CC(O)CC(c4ccc5c(c4C)COC5=O)C3)cn2)ncc1C#N (stereo not given)
inhibition at 3 µM [3]: 76%

remaining at 10 min, 10 µM [1]: 90%
remaining at 10 min, 10 µM [2]: 92%
Activity [4]: Not Active
IC50 [5]: > 10 µM
IC50 [6]: > 10 µM
IC50 [7]: > 10 µM
IC50 [8]: > 10 µM
Papp A→B [9]: 110 ×10⁻⁶ cm/s
permeability [10]: 570 10^-6 cm/s
IC50 [11]: > 40 µM
IC50 [12]: > 40 µM
IC50 [13]: > 40 µM
IC50 [14]: > 40 µM
IC50 [15]: > 40 µM
IC50 [16]: > 40 µM
IC50 [17]: > 40 µM
IC50 [18]: > 40 µM
IC50 [19]: > 40 µM
IC50 [20]: > 40 µM
IC50 [21]: > 40 µM
PPB [22]: 52%
PPB [23]: 68%
PPB [24]: 83%
PPB [25]: 76%
PPB [26]: 74%
EC50 [27]: > 50 µM
IC50 [31]: > 18 µM
IC50 [32]: > 18 µM
IC50 [33]: > 18 µM
IC50 [34]: > 18 µM
IC50 [35]: > 18 µM
IC50 [36]: > 18 µM
IC50 [37]: > 18 µM
solubility [38]: 14000 µg/mL (≈ 31.6 mM)
solubility [39]: 30 µg/mL (≈ 0.0676 mM)
Vd [40]: 2.6 L/kg
half-life [41]: 2.8 h
MRT [42]: 4 h
Cmax [43]: 2800 nM
Tmax [44]: 0.25 h
AUC(0-t) [45]: 14 µM·h
bioavailability [46]: 83%
Vd [47]: 2.8 L/kg
half-life [48]: 4.8 h
MRT [49]: 5.8 h
Cmax [50]: 3800 nM
Tmax [51]: 0.8 h
AUC(0-t) at 24 h [52]: 18 µM·h
bioavailability [53]: 76%
Vd [54]: 1.7 L/kg
half-life [55]: 3.3 h
MRT [56]: 1.7 h
Cmax [57]: 1900 nM
Tmax [58]: 0.8 h
AUC(0-t) [59]: 5.7 µM·h
bioavailability [60]: 48%
Vd [61]: 5.1 L/kg
half-life [62]: 4.2 h
MRT [63]: 3.6 h
Cmax [64]: 1000 nM
Tmax [65]: 2 h
AUC(0-t) [66]: 5.5 µM·h
bioavailability [67]: 69%
Compound: Cc1cc(-n2ncc(CN3C[C@@H](c4ccc5c(c4C)COC5=O)N[C@@H](C)C3)n2)ncc1C#N
IC50 [28]: > 100 µM
IC50 [29]: 2.7 µM
IC50 [30]: 7 µM

remaining at 10 min, 10 µM [1]: 92%
remaining at 10 min, 10 µM [2]: 94%
IC50 [69]: 0.052 µM
IC50 [70]: 0.0081 µM
Compound: Cc1cc(-n2ncc(CNC[C@H](O)c3ccc4c(c3C)COC4=O)n2)ncc1C#N
inhibition at 10 µM [68]: 87%
